Assays:
[1] = stability to hydrolysis (boiling in deionized water, titration of liberated phosphorous acid); type: physicochemical
Description: The stability to hydrolysis was tested according to the process disclosed in DT-OS 2,144,181, pages 7/8. 5.0 g each of the respective phosphite were boiled for 20 and 60 minutes in 100 ml of deionized water. The mixture was then allowed to cool, filtered to remove residues, if any, and in the filtrate the liberated phosphorous acid was titrated with 0.1N KOH against bromophenol blue.
In the following table is indicated the degree of hydrolysis determined under the specified conditions as quotient of the actual consumption of KOH and the theoretically possible consumption with a complete hydrolysis.

[2] = static heat stability (furnace stability) in PVC, time until black coloration; settings: heating cabinet with air circulation, 0.5 part phosphite
Description: (§1) The parts in the following description are parts by weight.
(§2) Each time 100 parts of a mass polyvinyl chloride having a K value of 60 were intimately mixed with
0.2 part of 2-phenyl-indole,
3.0 parts of epoxidized soybean oil
0.3 part of stearyl stearate
0.5 part of glycerol monostearate and
(§3) 0.5 part of the respective phosphite of the invention.
In order to measure the static heat stability (furnace stability) a rough sheet was prepared as described above and the sheet was rolled for a further 10 minutes at 180° C. Flat samples having a diameter of about 30 mm were punched out of the rough sheet removed from the mill and having a thickness of about 0.5 mm, the samples were wrapped in aluminum foil and heated to 180° C. in a heating cabinet with air circulation. At intervals of 10 minutes each a sample was taken from the cabinet and the color thereof was compared with that of the color chart.

[3] = dynamic heat stability (rolling stability) in PVC, discoloration of rough sheet; settings: 180° C, two roll mill, 0.5 part phosphite
Description: as §1, §2
0.2 part of 2-phenyl-indole,
3.0 parts of epoxidized soybean oil
0.3 part of stearyl stearate
0.5 part of glycerol monostearate and
as §3
To measure the dynamic heat stability (rolling stability) the mixtures were rolled on a two roll mill at 180° C. and with 20 revolutions per minute. At intervals of 10 minutes samples were taken from the rough sheet and the color of the samples was compared with the colors of a proper color chart. Rolling was continued until the rough sheet had turned black.
In the color chart used the individual notes have the following meaning:
4 = dark yellow-brown color

[4] = 20 minutes boiling in deionized water
[5] = 60 minutes boiling in deionized water
[6] = boiling deionized water, 20 min

Row | Compound | degree of hydrolysis after 20 minutes [1, 4] | degree of hydrolysis after 60 minutes [1, 5] | static (furnace) stability, black coloration at 180° C after [2] | dynamic (rolling) stability, discoloration of rough sheet after a rolling time of 10' [3] | dynamic (rolling) stability, discoloration of rough sheet after a rolling time of 20' [3] | dynamic (rolling) stability, discoloration of rough sheet after a rolling time of 30' [3] | dynamic (rolling) stability, discoloration of rough sheet after a rolling time of 40' [3] | dynamic (rolling) stability, discoloration of rough sheet after a rolling time of 50' [3] | dynamic (rolling) stability, discoloration of rough sheet after a rolling time of 60' [3] | degree of hydrolysis after 20 minutes [1, 6] | degree of hydrolysis after 60 minutes ([1]; boiling deionized water, 1 h) | dynamic (rolling) stability, discoloration of rough sheet after a rolling time of 70' [3] | dynamic (rolling) stability, discoloration of rough sheet after a rolling time of 80' [3]
1 | CCCCCCCCCCCCCCCCCCOP1OCC2(CO1)COP(OCCCCCCCCCCCCCCCCCC)OC2 (stereo not drawn) [distearyl-pentaerthrityl-diphosphite, distearyl-pentaerythritol diphosphite, reference compound] | 55 % of theory | 68 % of theory | 50 ' | 2-3 | 2-3 | 3 | 3 | 4 | 5 |  |  |  | 
2 | c1ccc(OP(Oc2ccccc2)Oc2ccccc2)cc1 [triphenyl phosphite, reference compound] | 84 % of theory | 100 % of theory | 50 ' | 1 | 2 | 2-3 | 5 |  |  |  |  |  | 
3 | Di-behenyl-erythrityl diphosphite [Example 8] |  |  | 60 ' | 1 | 1-2 | 1-2 | 2 | 3 | 4 | 7 % of theory | 11 % of theory | 5 | 
4 | Tri-behenyl-mannityl triphosphite [Example 5] |  |  |  | 1 | 1-2 | 2 | 2 | 3 | 3 | 7 % of theory | 23 % of theory | 4 | 5
5 | Tri-behenyl-sorbityl triphosphite [Example 4] |  |  |  | 1 | 1-2 | 2 | 2 | 3 | 3 | 10 % of theory |  | 4 | 5
6 | Tri-stearyl-dulcityl-triphosphite [Example 3] |  |  | 60 ' | 1 | 1-2 | 2 | 3 | 4 | 5 |  |  |  | 
7 | Tri-stearyl-mannityl-triphosphite [Example 2] |  |  |  | 1 | 1-2 | 2 | 2-3 | 3 | 3 | 5 % of theory | 10 % of theory | 4 | 4
8 | Tri-stearyl-sorbityl triphosphite [Example 1] |  |  |  | 1 | 1-2 | 2 | 2-3 | 3 | 3 | 7 % of theory | 17 % of theory | 4 | 4
9 | Tristearyl-sorbityl diphosphite monophosphate [Example 25] | 9 % of theory |  |  |  |  |  |  |  |  |  |  |  | 
10 | distearyl-monododecyl-mercapto-sorbityl triphosphite [Example 23] |  |  | 60 ' | 2 | 3 | 3 | 3 | 3-4 | 4 |  |  | 5 | 
11 | distearyl-sorbityl diphosphite [Example 10] |  |  | 60 ' | 1 | 1-2 | 2 | 3 | 4 | 5 |  |  |  | 
12 | trisnonylphenyl phosphite [reference compound] | 57 % of theory | 92 % of theory | 40 ' | 1 | 2 | 2-3 | 3 | 5 |  |  |  |  | 
